# Data reported in patent US5976523A, “Method for healing compromised tissues using pyrimidine derivatives” (Mitsui Pharmaceuticals, Inc., priority 1995, dated 1999).
# Structures can show the parent of a compound that is named as a salt.
# Experiments:
# PDGF-A mRNAs = test: Northern blot analysis of PDGF-A mRNA expression in cultured rat SMCs; type: cell-based
# Method: SMCs were prepared following the method proposed by Ross and Klebanoff in "J. Cell. Biol.", 50, 159 ff, 1971 with partial modifications. A rat thoracic aorta was excised. After the tunica externa was peeled off, the tunica media and the tunica intima were minced into 2-3 mm^2. The minced sections were placed standstill in a 25-cm^2 flask which contained Waymouth's MB 752/1 medium containing 10% FBS and 80 ng/ml of gentamycin (product of Schering-Plough Corp.), followed by incubation at 37° C. for 2 to 3 weeks in the presence of 5% carbon dioxide gas (primary culture). The same volume of a trypsin-EDTA solution was added to the flask. After the sections were treated at 37° C. for 5 minutes to peel off cells, the cells were diluted with 10% FBS-Waymouth's MB 752/1 medium and then subcultured (second generation). Subculture was successively conducted likewise whenever the SMC became confluent. In the following experiments, the cells from the 5th generation to the 12th generation were employed.
# After reach in confluence of cells, the cultured SMCs were cultured for 2 days in a serum-free medium to avoid influence of serum. The SMCs were then added with thrombin (1.0 U/ml) or serotonin (5 μM), followed by incubation at 37° C. for 6 hours under which bring about induction of PDGF-A mRNAs at the maximum. To prevent dissociation of ribosomes and mRNAs, cycloheximide (100 μg/ml) was added 5 minutes before cells were collected.
# Preparation of a polysome fraction and extraction of RNAs were conducted following the method proposed by Kasper, et al. in "J. Biol. Chem.", 267, 508 ff, 1992 with slight modifications. The cells, which had been collected by the treatment with trypsin, were washed with PBS containing cycloheximide (100 μg/ml). A cell precipitate was then added with 500 μl of a high-salt lysis buffer (20 mM Tris-HCl pH 7.5, 250 mM NaCl, 5 mM MgCl2, 0.1% Noni det P-40, 0.2% DOC) for homogenization. The homogenate was centrifuged under 12,000×g at 4° C. for 10 minutes. The resulting supernatant was added with 67 μl of a heparine mix (7.4 mg/ml heparine, 1.1M NaCl, 15 mM DTT and RNasin). 200 μl of the extract were layered on 5 ml of 0.5-1.25M linear sucrose gradient (which contained 20 mM Tris-HCl pH 7.4, 10 mM NaCl, 3 mM MgCl2), followed by centrifugation under 45,000 rpm for 90 minutes in a "Hitachi RP55ST". While monitoring the absorbance at 260 nm, ten (10) fractions were obtained. To prepare samples for the extraction of RNAs, the fractions were individually added with SDS and proteinase K to give final concentrations of 1% and 0.2 mg/ml, respectively. Subsequent to incubation at 37° C. for 1 hour, each fraction was extracted once with 1/2 volume of phenol, twice with 1/2 volume aliquots of chloroform, and once with the equal volume of chloroform, whereby proteins were removed. The water layer was added with glycogen (20 μg/ml) as a coprecipitant and then with 0.03M of sodium acetate, and RNAs were caused to precipitate with 2 volumes of ethanol.
# After RNAs were incubated at 65° C. for 5 minutes in a solution containing 60% of formamide, 5.9% of formaldehyde and the equal volume of MOPS buffer (10 mM MOPS pH 7.0, 4 mM NaOAc, 0.5 mM EDTA), electrophoresis was conducted across 1.2% agarose gels containing the equal volume of MOPS buffer so that RNAs were. isolated. After the gel was washed with 20 volumes of SSC, RNAs were blotted overnight to a Gene Screen Plus membrane by the capillary method. Fixing of the RNAs was conducted by exposing them for 1 minute at a distance of 10 cm from a 15-W sterilamp. Using a "QuickHyb Hybridization Solution" (product of Strategene Ltd.), hybridization was conducted following the instruction manual attached to the solution. Results of autoradiography were quantitated with reference to the NIH Image. […]
# bone defect (tibia) = test: Rat bone defect model, formation of hyaline cartilage matrix; type: in vivo; settings: bFGF (0.5 μg) + compound (0.5 mg) pellet, 7th day, vs bFGF pellet
# Text: Action of 2-piperazino-6-methyl-5-oxo-5,6-dihydro(7H)pyrro[3,4-d]pyrimidinemaleate on in vivo chondrogenesis was studied in detail by preparing a rat bone defect model which permits observation of bFGF-derived formation of a hyaline cartilage matrix. Embedment of a bFGF-containing pellet in a bone defect of the model permits easy observation of formation of a hyaline cartilage matrix under the periosteum around the bone defect. Rats were divided into three groups. The rats in one of the groups were each embedded in a formed bone defect (diameter: 2.6 mm) thereof with a hydroxyethyl methacrylate pellet (10 mg) which contained bFGF (0.5 μg). The rats in another one of the groups were each embedded likewise with a hydroxyethyl methacrylate pellet (10 mg) which contained bFGF (0.5 μg) and the invention compound (0.5 mg). The rats in the remaining group, that is, a control group were each embedded similarly with a pellet which contained physiological saline. After the rats in all the three groups were sacrificed seven days later, action of bFGF or the invention compound on the process of chondrogenesis on enchondral ossification around the bone defect was investigated. On the 7th day after the formation of the bone defect, the tibia of each rat was histologically examined around the bone defect.
structure (smiles),measurement,setting,value
"CN1Cc2nc(N3CCNCC3)ncc2C1=O [Compound B, 2-piperazino-6-methyl-5-oxo-5,6-dihydro(7H)pyrro[3,4-d]pyrimidine maleate]",fold induction at 100 µM,"PDGF-A mRNAs; Rattus norvegicus, 6 h, read-out: expression amount of 1.7 kb PDGF-A mRNAs compared with control",1.4
same,band of 1.3 kb PDGF-A,PDGF-A mRNAs; addition of compound,additionally detected
same,2.3 kb PDGF-A mRNAs,PDGF-A mRNAs; compound 0.1 mM + thrombin,in greater amounts
same,2.9 kb PDGF-A mRNAs,PDGF-A mRNAs; compound 0.1 mM + thrombin,in greater amounts
same,formation of a hyaline cartilage matrix,bone defect (tibia),in an amount apparently larger than that formed in the group embedded with the bFGF-containing pellet
